Laboratory results as given in ChEMBL document CHEMBL1201862, “PubChem BioAssay data set” (2004).
Activity calls are given as the source filed them. For most assays here, no stated cut-off is given here; in the data, actives have a measured EC50 and inactives only a lower limit.

Key:
INS1 = assay: INS-1E survival protection against cytokine death – cell-based, luminescence, retest, dose response (AID 449756); assay type: functional; details: Rattus norvegicus;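 further: cell death triggered by IL-1 beta plus TNF-alpha plus IFN-gamma mixture; protective hits raise ATP signal compared with cytokine alone wells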
[1] = luciferase reporter signal suppression in cells – H4 neuroglioma cells, luminescence, dose response (AID 1990); assay type: functional, cell-based
[2] = Luminescence Cell-Based Dose Response HTS to Identify Inhibitors of 5'UTR Stem-Loop Driven Prion Protein mRNA Translation in H4 Neuroglioblastoma Cells. [Related pubchem assays: 1827 (Project Summary), 1813 (Primary HTS)]; assay type: functional
[3] = alpha-synuclein stem-loop luciferase translation blockers – H4 neuroglioma cells, luminescence, confirmation (AID 1988); assay type: functional, cell-based
H9c2 = assay: cells; assay type: functional, cell-based; details: Rattus norvegicus, H9c2, Myocardium;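 further: confirmatory concentration-response retest of ultra-high-throughput screening hits for modulation of myocardial damage; cell death induced by hydrogen peroxide oxidative stress; compound pretreatment for 60 min then peroxide exposure for 2 h; potency is for protecting the cells against peroxide damage rather than for killing them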
[4] = viability of uninfected HEp-2 cells – cell-based, HTS, cytotoxicity control for RSV inhibitor project, dose response (AID 2410); assay type: functional; details: human respiratory syncytial virus
Streptokinase A = biological target: T1, Streptokinase A (Streptococcus pyogenes serotype M1, UniProt P10520); assay: viability-normalized secreted streptokinase activity reduction – plasminogen activation absorbance, OD405, dose response (AID 1914); assay type: functional, Streptococcus pyogenes M1 GAS;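 further: secreted streptokinase activity via plasminogen activation per viability signal from cell pellet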
T1 sequence (P10520 whole entry): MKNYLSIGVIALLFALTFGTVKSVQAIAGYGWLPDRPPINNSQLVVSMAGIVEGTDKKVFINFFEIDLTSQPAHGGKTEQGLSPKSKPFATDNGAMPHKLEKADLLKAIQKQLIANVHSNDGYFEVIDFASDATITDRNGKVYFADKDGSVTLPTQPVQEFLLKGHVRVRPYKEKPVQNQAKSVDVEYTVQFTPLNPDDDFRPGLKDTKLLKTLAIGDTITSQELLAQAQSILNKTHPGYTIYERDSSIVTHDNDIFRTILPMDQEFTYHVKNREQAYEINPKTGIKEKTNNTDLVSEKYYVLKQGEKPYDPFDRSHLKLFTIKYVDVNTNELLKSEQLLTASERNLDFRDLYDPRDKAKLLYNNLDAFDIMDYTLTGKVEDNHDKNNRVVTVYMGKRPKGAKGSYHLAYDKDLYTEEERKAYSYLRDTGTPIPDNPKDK

[5] = tested on: Streptococcus sp. 'group A'; assay: Streptococcus pyogenes SK(-)GAS viability under kanamycin – luminescence, BacTiterGlo, confirmation, counter-screen for streptokinase expression inhibitor project, dose response (AID 1900); assay type: functional, organism-based
Streptococcus = assay: GAS UMAA2166 growth inhibition – luminescence, BacTiterGlo, counter-screen for streptokinase expression inhibitor project, dose response (AID 1915); assay type: functional, organism-based;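 further: potency for reduction of bacterial viability or growth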
Fatty acid synthase [6] = biological target: T2, Fatty acid synthase (Homo sapiens, UniProt P49327); assay: inhibition of human FAS-TE enzyme activity – biochemical, kinetic fluorescence intensity, dose response (AID 624326); assay type: functional;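 further: rate of fluorescence rise from hydrolysis of a fluorogenic O-methyl fluorescein ester substrate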
Fatty acid synthase [7] = biological target: T2, Fatty acid synthase; assay: inhibition of human FAS-TE enzyme activity – biochemical, endpoint fluorescence intensity, uHTS hits, dose response (AID 624327); assay type: functional;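 further: fluorescence from hydrolysis of an O-methyl fluorescein acyl ester substrate by the enzyme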
Protein RecA = biological target: T3, Protein RecA (Mycobacterium tuberculosis, UniProt P9WHJ3); assay: Fluorescence Cell-Free Homogeneous Dose Retest to Identify Inhibitors of RecA-Intein Splicing Activity. [Related pubchem assays (depositor defined):AID2097, AID2223, AID489010, AID492950]; assay type: functional
T3 sequence (P9WHJ3 whole entry): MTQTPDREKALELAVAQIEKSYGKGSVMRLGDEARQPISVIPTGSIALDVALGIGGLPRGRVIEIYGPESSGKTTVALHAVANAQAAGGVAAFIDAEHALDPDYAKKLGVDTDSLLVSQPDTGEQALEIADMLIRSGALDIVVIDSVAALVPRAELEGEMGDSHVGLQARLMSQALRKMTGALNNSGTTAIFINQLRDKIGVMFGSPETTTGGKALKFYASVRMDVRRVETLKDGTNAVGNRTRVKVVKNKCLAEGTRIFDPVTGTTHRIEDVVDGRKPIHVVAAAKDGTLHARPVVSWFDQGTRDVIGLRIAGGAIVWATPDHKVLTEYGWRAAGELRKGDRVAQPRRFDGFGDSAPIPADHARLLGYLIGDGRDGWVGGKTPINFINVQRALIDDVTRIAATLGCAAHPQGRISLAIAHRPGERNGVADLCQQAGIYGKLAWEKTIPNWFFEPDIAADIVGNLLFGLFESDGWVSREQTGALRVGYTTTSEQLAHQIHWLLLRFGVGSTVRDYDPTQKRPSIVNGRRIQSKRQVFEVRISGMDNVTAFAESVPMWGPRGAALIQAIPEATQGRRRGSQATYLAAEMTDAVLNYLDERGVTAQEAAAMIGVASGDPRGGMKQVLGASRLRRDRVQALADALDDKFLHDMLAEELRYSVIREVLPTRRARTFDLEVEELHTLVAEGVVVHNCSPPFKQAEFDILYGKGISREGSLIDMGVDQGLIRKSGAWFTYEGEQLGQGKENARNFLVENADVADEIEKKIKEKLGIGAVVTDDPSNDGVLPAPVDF

T2 sequence (P49327 whole entry): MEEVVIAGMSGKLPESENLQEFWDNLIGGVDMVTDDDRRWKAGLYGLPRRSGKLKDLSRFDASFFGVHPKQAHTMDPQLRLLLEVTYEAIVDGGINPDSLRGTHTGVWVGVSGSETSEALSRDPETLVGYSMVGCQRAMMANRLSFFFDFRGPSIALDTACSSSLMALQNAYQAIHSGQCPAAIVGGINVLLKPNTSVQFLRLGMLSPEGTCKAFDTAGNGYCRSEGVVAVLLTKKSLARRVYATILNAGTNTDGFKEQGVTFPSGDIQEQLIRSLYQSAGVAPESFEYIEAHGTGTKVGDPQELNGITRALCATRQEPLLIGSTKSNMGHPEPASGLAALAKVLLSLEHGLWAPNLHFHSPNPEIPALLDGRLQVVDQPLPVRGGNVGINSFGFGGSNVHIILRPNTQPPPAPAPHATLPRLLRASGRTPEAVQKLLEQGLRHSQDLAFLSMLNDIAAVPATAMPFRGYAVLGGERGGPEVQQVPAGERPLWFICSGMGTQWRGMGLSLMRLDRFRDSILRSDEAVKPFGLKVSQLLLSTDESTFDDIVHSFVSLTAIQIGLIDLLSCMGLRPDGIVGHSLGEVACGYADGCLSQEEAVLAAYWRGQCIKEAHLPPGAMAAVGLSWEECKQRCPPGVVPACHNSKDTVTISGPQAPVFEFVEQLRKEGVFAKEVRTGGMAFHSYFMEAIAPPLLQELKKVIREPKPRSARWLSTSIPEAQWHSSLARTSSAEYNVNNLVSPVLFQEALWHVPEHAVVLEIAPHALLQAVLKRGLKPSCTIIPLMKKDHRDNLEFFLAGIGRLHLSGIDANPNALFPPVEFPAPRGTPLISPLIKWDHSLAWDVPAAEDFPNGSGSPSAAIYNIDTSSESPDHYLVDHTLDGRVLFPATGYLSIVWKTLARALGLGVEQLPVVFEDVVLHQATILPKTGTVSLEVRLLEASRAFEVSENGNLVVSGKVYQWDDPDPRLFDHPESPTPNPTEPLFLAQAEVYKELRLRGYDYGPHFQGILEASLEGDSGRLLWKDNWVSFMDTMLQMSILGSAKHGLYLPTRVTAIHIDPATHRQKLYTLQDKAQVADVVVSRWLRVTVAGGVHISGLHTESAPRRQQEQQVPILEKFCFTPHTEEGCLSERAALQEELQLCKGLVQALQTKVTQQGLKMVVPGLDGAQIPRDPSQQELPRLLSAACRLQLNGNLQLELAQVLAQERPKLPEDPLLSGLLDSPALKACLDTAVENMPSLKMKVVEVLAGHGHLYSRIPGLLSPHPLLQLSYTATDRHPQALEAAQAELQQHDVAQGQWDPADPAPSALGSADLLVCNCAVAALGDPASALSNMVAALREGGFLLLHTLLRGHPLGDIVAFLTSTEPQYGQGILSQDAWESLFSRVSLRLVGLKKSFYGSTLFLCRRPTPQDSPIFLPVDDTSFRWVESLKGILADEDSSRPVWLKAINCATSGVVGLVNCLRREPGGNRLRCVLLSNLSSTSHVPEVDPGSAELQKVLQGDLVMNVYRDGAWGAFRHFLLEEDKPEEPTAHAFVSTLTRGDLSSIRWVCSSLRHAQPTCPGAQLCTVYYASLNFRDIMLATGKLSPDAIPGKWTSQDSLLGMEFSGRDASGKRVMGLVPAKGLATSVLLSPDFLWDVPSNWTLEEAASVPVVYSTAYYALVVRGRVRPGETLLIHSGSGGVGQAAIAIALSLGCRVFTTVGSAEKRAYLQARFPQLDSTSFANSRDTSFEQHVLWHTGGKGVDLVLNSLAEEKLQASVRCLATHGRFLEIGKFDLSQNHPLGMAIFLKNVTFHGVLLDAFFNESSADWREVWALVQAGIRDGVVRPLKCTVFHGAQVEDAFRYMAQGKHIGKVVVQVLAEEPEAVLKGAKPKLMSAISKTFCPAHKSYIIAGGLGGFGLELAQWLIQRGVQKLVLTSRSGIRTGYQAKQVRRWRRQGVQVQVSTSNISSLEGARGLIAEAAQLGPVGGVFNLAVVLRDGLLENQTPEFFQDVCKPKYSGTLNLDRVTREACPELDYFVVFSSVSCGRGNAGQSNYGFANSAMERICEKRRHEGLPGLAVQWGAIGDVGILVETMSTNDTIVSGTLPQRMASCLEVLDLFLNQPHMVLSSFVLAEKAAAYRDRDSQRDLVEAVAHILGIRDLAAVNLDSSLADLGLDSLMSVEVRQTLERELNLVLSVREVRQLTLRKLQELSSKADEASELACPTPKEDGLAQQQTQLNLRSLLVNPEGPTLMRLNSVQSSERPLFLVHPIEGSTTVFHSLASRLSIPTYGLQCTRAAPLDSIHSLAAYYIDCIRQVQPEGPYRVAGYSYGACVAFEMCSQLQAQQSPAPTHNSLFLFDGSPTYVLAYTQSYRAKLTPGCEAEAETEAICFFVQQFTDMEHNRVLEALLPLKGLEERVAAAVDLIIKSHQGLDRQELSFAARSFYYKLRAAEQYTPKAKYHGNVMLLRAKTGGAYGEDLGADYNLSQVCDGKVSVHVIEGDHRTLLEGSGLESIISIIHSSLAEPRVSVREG

FC(F)(F)c1nc2ccccc2n2c(-c3ccc(Cl)cc3)nnc12
AC50 (INS1): 6.4 µM (active) | EC50 [1]: 9.07 µM (active) | EC50 [2]: 9.21 µM (active) | EC50 [3]: 8.92 µM (active)

COc1ccc(-c2nn(-c3ccccc3)cc2C(=O)OCC(=O)c2ccc(C)c([N+](=O)[O-])c2)cc1
AC50 (INS1): 0.97 µM (active)

COc1cccc(-c2nnc3sc(-c4ccccn4)nn23)c1
IC50 (H9c2): > 79 µM (inactive)

Oc1nc2c(c3c1CCCC3)CCCC2
IC50 (H9c2): > 79 µM (inactive)

CC1CN(c2ccc([N+](=O)[O-])cc2C#N)CC(C)O1 (stereo not given)
CC50 [4]: 34.9 µM (active)

Cc1cccc(NC(=O)c2cc(-c3ccco3)nc3ccccc23)n1
IC50 (H9c2): > 79 µM (inactive)

O=C(NC(=S)N1CCN(C(c2ccccc2)c2ccccc2)CC1)c1ccc(S(=O)(=O)N2CCOCC2)cc1
EC50 (Streptokinase A): > 150 µM (not active) | EC50 [5]: 1.14 µM (active) | EC50 (Streptococcus): 108 µM (active)

CC(C)(C)c1ccc(Cn2ccc(-c3ccc4c(c3)OCO4)n2)cc1
EC50 (Streptokinase A): > 150 µM (not active) | EC50 [5]: 9.62 µM (active) | EC50 (Streptococcus): 79.9 µM (active)

CC[C@@]12C(=O)N(c3cccc(Br)c3)C(=O)N1[C@H](c1ccc(F)cc1)[C@@H]1C(=O)N(C3CCCCC3)C(=O)[C@@H]12
CC50 [4]: 41.1 µM (active)

CC(C)(C)C(=O)N1N=C(c2ccc(NS(C)(=O)=O)cc2)CC1c1cccs1 (stereo not given)
EC50 (Streptokinase A): > 150 µM (not active) | EC50 [5]: 6.62 µM (active) | EC50 (Streptococcus): 12.4 µM (active)

COc1ccc(-c2[nH]c(-c3ccc(C)cc3)nc2SCC(=O)NC2CCCC2)cc1
CC50 [4]: 38.9 µM (active)

Cc1cc(C)n(-c2nc(NCCO)c3c4c(sc3n2)CCCC4)n1
AC50 (INS1): 5.3 µM (active)

O=C(CSc1ccc(-c2ccc(Cl)cc2)nn1)NC1CCCC1
EC50 (Streptokinase A): > 150 µM (not active) | EC50 [5]: > 150 µM (not active) | EC50 (Streptococcus): > 150 µM (not active)

COc1ccccc1NC(=O)CSc1ccc2nnc(-c3ccc(C)cc3)n2n1
IC50 (H9c2): > 79 µM (inactive)

COc1cc(OC)c(NC(=O)c2sc3ncn(CC(=O)N4CCN(c5ccccn5)CC4)c(=O)c3c2C)cc1Cl
EC50 (Streptokinase A): > 150 µM (not active) | EC50 [5]: 11.6 µM (active) | EC50 (Streptococcus): 86.6 µM (active)

O=C(/C=C/c1cccs1)c1cc(Br)ccc1OC(=O)N1CCOCC1
CC50 [4]: 18.7 µM (active)

CCc1ccc(/C=C2\SC(N3CCCC3)=NC2=O)cc1
CC50 [4]: > 50 µM (active)

Cc1[nH]c2ccccc2c1N=Nc1ccc(F)cc1
CC50 [4]: 17.2 µM (active)

C[C@@H](C(=O)Nc1ccc2ccccc2c1)[C@H]1C[C@]1(C)[C@H](NS(=O)(=O)c1ccccc1)c1ccccc1
CC50 [4]: 36.4 µM (active)

COc1cc(CCNc2ccc3nnc(-c4ccccc4)n3n2)cc(OC)c1OC
IC50 (H9c2): > 79 µM (inactive)

COc1ccc(/C=C/C(=O)c2ccccc2O)cc1CN1CCOCC1
IC50 (H9c2): > 79 µM (inactive)

CCCC(=O)Nc1sc2c(c1C(=O)OC)C(C(=O)OC)CC2 (stereo not given)
CC50 [4]: 31.6 µM (active)

CCC(=O)Nc1ccc(Nc2nc(C)c([N+](=O)[O-])c(Nc3ccc(NC(=O)CC)cc3)n2)cc1
EC50 (Streptokinase A): > 150 µM (not active) | EC50 [5]: 0.487 µM (active) | EC50 (Streptococcus): 49.3 µM (active)

CC(=O)c1c(C)n(-c2cccc(Cl)c2)c2ccc(O)cc12
IC50 (H9c2): 10.4 µM (active)

COc1ccc(C(C(=O)NCc2ccccc2)N(Cc2ccco2)C(=O)c2snc(C(N)=O)c2N)cc1 (stereo not given)
IC50 (H9c2): > 79 µM (inactive)

COc1ccc(/C=N/NC(=O)c2cc(C(C)(C)C)[nH]n2)cc1COc1ccc(F)cc1F
EC50 (Streptokinase A): > 150 µM (not active) | EC50 [5]: 6.95 µM (active) | EC50 (Streptococcus): 11.7 µM (active)

CCOC(=O)c1ccc(NC(=O)CC2SC(N/N=C/c3c[nH]c4ccccc34)=NC2=O)cc1 (stereo not given)
EC50 (Streptokinase A): > 150 µM (not active) | EC50 [5]: 3.35 µM (active) | EC50 (Streptococcus): > 150 µM (not active)

Cc1[nH]c2ccccc2c1/C=N/NC(=O)c1cc(-c2cccs2)[nH]n1
IC50 (H9c2): > 79 µM (inactive)

Cc1ccccc1/N=C1\C(Cl)=C(O)OC1OC(=O)c1ccco1 (stereo not given)
IC50 (Fatty acid synthase [6]): 4.35 µM (active) | IC50 (Fatty acid synthase [7]): 3.24 µM (active) | EC50 (Protein RecA): 11.4 µM (active)
